In US12691101B2, “Compound and method for preventing or treating of respiratory diseases comprising the same as an active ingredient” (YONSEI UNIVERSITY, UNIVERSITY - INDUSTRY FOUNDATION (UIF), priority 2019, dated 2026):

Assays:
[1] = biological target: T1, human wild-type (WT)-pendrin (Homo sapiens, UniProt O43511); test: Pendrin-mediated Cl^−/OH^− exchange activity in CHO-K1 cells; format: cell-based
T1 construct: expressed in transfected cells
T1 sequence (O43511 1-780): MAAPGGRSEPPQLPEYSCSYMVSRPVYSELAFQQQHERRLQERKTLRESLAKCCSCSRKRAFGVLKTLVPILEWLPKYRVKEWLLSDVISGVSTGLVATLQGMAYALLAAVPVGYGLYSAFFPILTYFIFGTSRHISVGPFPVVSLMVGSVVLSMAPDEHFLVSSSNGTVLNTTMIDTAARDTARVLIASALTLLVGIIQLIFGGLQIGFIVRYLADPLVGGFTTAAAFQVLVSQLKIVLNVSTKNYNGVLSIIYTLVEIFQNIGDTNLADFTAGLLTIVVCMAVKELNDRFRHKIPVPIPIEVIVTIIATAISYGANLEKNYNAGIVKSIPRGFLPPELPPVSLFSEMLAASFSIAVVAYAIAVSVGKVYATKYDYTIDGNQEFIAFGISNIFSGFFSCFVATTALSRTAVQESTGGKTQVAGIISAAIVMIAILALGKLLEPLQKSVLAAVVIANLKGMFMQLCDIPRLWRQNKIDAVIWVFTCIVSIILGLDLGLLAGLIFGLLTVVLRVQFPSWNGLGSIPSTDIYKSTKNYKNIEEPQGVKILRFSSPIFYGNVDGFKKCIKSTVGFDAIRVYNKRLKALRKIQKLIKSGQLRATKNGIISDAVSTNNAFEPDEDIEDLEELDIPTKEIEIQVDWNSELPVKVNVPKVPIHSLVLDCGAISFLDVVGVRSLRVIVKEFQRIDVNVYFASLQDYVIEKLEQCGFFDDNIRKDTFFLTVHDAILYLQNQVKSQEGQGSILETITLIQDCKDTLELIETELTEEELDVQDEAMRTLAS
Method: For measurement of Cl^−/OH^− exchange activity, intracellular pH (pHi) was measured in WT-pendrin expressing CHO-K1 and HNE cells using pH sensor SNARF5-AM (Molecular Probes). The cells were treated with 5 μM SNARF5-AM for 30 minutes, and then were equipped in a perfusion chamber on the stage of a reverse fluorescence microscope (Nikon, Tokyo, Japan) equipped with a cooled charge-coupled device camera (Zyla sCMOS), image acquisition and analysis software (Meta Imaging Series 7.7). To measure the Cl^−/OH^− exchange activity, HEPES buffer solution was changed to CV-free HEPES buffer solution for generation of an Cl^− gradient driving Cl^− outflow and OH^− inflow of cytosol by pendrin.

CHO-K1 cells = test: Cell viability, MTS colorimetric analysis, CHO-K1; format: cell-based, Chinese hamster; settings: 24 hours, up to 30 μM
Method: (§1) (A) Pendrin-mediated Cl^−/I^− exchange activity (mean±S.E., n=5). The indicated concentration of F56 was pretreated for 10 minutes. (B, C) Representative tracing of intracellular pH. The application of Cl^− free solution induced intracellular alkalization through pendrin-mediated Cl^−/HCO3^− and Cl^−/OH^− exchange activity. The indicated concentration of F56 was pretreated for 10 minutes. (D-F) The pendrin-mediated Cl^−/I^− exchange activity was measured in CHO-K1 cells expressing human pendrin. The indicated concentration of F56, PDSinh-A01 and PDSinh-C01 was pretreated for 10 minutes. (G) Summary of dose-response of F56, PDSinh-A01 and PDSinh-C01 (mean±S.E., n=3). (H, I) Effect of F56, PDSinh-A01 and PDSinh-C01 on the cell viability in NIH3T3 (H) and CHO-K1 (I) cells. The cells were treated with F56, PDSinh-A01 and PDSinh-C01 for 24 hours. The cell viability was measured by MTS colorimetric analysis (mean±S.E., n=3). NTC, non-transfected cells.
(§2) The cells were treated with F10 for 24 hours. The cell viability was determined by MTS colorimetric analysis (mean±S.E., n=3).

NIH3T3 cells = test: Cell viability, MTS colorimetric analysis, NIH3T3; format: cell-based; settings: 24 hours, up to 30 μM
Method: as §1, §2

[2] = biological target: T1, human wild-type (WT)-pendrin; test: Pendrin-mediated Cl^−/SCN^− exchange activity in CHO-K1 cells; format: cell-based
Method: For measurement of Cl^−/SCN^− exchange activity, YFP fluorescence was measured in pendrin and halide sensor YFP expressing CHO-K1 cells. To measure the Cl^−/SCN^− exchange activity, HEPES buffer solution was changed to NaSCN-substituted HEPES buffer solution (140 mM NaSCN, 5 mM KCl, 1 mM MgCl2, 1 mM CaCl2, 10 mM glucose and 10 mM HEPES (pH 7.4)) for generation of an SCN^− gradient driving SCN^− inflow by pendrin. The YFP fluorescence change by SCN^− inflow was monitored using FLUOstar Omega microplate reader (BMG Labtech) and MARS data analysis software (BMG Labtech).

Duox2 mRNA = Duox2 mRNA expression in LPS-treated hAEC, real-time PCR; format: cell-based, human
Method: The total messenger RNA (mRNA) was extracted using TRIzol reagent (Invitrogen, Carlsbad, CA, USA), and was reverse-transcribed using a random hexamer primer, an oligo(dT) primer and SuperScript® III reverse transcriptase (Invitrogen). Quantitative real-time PCR was performed using StepOnePlus Real-Time PCR system (Applied Biosystems, Foster City, CA, USA) and Thunderbird SYBR qPCR mix (Tokyobo, Osaka, Japan). Thermal cycling conditions included the initial stage at 95° C. for 5 minutes, and subsequent 40 cycles at 95° C. for 10 seconds, at 55° C. for 20 seconds and at 72° C. for […].

SMILES: CC(C)(C)c1ccc(C2=NC(=Cc3ccc[nH]3)C(=O)O2)cc1 [F10, 4-((1H-pyrrol-2-yl)methylene)-2-(4-(tert-butyl)phenyl)oxazol-5 (4H)-one]
- inhibition of pendrin Cl^−/OH^− exchange activity [1]: strongly inhibit
- cytotoxicity in CHO-K1 cells (CHO-K1 cells): did not show any cytotoxicity up to 30 μM
- cytotoxicity in NIH3T3 cells (NIH3T3 cells): did not show any cytotoxicity up to 30 μM
- inhibition of pendrin Cl^−/SCN^− exchange activity [2]: strongly inhibit

SMILES: CC(C)(C)c1ccc(C2=NC(=Cc3cccs3)C(=O)O2)cc1 [F56, 2-(4-(tert-butyl)phenyl)-4-(thiophen-2-ylmethylene)oxazol-5(4H)-one]
- inhibition of pendrin Cl^−/OH^− exchange activity [1]: strongly inhibited
- mRNA expression level of Duox2 (Duox2 mRNA): did not change
- cytotoxicity in CHO-K1 cells (CHO-K1 cells): did not show cytotoxicity up to 30 μM
- cytotoxicity in NIH3T3 cells (NIH3T3 cells): did not show cytotoxicity up to 30 μM
- inhibition of pendrin Cl^−/SCN^− exchange activity [2]: strongly inhibited
